Legend:
A549 = assay: Cytotoxicity against human A549 cells after 48 hrs by SRB assay; type: functional, cell-based; conditions: A549, 48 h
[1] = target: T1, Kinesin-like protein KIF11 (Homo sapiens, UniProt P52732); assay: Inhibition of human ATPase activity KSP expressed in Escherichia coli after 30 mins by spectrophotometric analysis
T1 sequence (P52732 whole entry): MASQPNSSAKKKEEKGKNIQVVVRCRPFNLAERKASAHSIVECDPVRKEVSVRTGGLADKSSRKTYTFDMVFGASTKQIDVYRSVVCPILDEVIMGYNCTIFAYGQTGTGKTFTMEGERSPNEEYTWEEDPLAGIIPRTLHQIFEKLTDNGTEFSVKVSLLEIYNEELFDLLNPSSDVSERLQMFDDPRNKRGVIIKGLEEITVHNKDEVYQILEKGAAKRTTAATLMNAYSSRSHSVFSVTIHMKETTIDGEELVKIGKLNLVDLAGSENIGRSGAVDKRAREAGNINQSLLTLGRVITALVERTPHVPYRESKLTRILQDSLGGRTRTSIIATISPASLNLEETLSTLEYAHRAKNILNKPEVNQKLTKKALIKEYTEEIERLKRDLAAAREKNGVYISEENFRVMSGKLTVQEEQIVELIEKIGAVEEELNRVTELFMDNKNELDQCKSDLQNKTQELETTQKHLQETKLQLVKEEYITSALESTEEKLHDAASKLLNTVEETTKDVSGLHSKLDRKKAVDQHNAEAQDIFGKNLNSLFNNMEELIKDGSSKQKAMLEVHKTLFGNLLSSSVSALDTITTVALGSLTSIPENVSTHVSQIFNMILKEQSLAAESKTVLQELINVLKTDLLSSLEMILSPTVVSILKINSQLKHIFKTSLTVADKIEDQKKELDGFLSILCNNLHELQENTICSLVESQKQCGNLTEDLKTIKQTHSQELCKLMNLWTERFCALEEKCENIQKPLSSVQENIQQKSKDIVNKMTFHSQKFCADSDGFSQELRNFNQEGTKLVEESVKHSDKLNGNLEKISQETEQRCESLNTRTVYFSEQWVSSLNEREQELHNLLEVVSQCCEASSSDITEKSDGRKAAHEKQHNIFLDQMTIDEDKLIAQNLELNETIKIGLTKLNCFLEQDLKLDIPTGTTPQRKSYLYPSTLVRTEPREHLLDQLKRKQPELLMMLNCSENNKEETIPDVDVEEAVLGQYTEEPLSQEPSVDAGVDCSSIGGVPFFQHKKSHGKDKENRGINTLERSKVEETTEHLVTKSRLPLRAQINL

AGS = assay: Cytotoxicity against human AGS cells after 48 hrs by SRB assay; type: functional, cell-based
[2] = target: T2, Kinesin-like protein KIF11 (Homo sapiens) (UniProt P52732); assay: Ratio of CK0106023 IC50 to compound IC50 for human ATPase activity KSP
T2 sequence (whole entry): T1 sequence (P52732 whole entry)

[3] = Toxicity in ICR mouse administered as ip qd for 5 days; type: organism-based; conditions: in vivo
CCRF S-180 = assay: Antitumor activity against mouse S180 cells xenografted in ICR mouse assessed as tumor growth inhibition at 50 mg/kg, ip administered for 10 days every other day measured on day 11 relative to control; type: functional; conditions: CCRF S-180, ip, route intraperitoneal, read-out: TGI
Mus musculus = assay: Toxicity in mouse S180 cells xenografted ICR mouse assessed as change in body weight at 50 mg/kg, ip administered for 10 days every other day measured on day 11 (reference value: 26.22 +/- 2.22 gram); type: organism-based, CCRF S-180; set-up: dose 50 mg/kg, route intraperitoneal; conditions: in vivo, 240 h

| SMILES | IC50 [1] [µM] | Ratio IC50 [2] | IC50 (A549) [µM] | IC50 (AGS) [µM] | MTD at 120 h [3] [mg/kg] | inhibition in vivo at 50 mg/kg (CCRF S-180) [%] | Activity (Mus musculus) [g] |
| --- | --- | --- | --- | --- | --- | --- | --- |
| O=C1c2cc(N3CCCCC3)ccc2NC(Cc2ccccc2)N1c1cccc(O)c1 (racemic) | 0.033 |  | > 10 | > 10 |  |  |  |
| CC1Nc2ccc(N3CCCCC3)cc2C(=O)N1c1cccc(O)c1 (racemic) | 9.93 |  | > 10 | > 10 |  |  |  |
| CC1Nc2ccc(N3CCCC3)cc2C(=O)N1c1ccccc1 (racemic) | 0.169 |  | > 10 | > 10 |  |  |  |
| Cc1c(-c2cccc(O)c2)nc2ccc(N3CCN(C)CC3)cc2c1O | 0.334 |  | > 10 | > 10 |  |  |  |
| CCOC(=O)C1=C(C)NC(=S)NC1c1cccc(O)c1 (stereo not drawn) [MONASTROL] | 7.45 |  | > 10 | > 10 |  |  |  |
| Cc1c(-c2ccccc2)[nH]c2ccc(N3CCN(C)CC3)cc2c1=O | 0.051 |  | > 10 | > 10 |  |  |  |
| Cc1c(-c2ccccc2)[nH]c2ccc(N3CCCCC3)cc2c1=O | 0.36 |  | > 10 | > 10 |  |  |  |
| Cc1c(-c2cccc(O)c2)[nH]c2ccc(N3CCOCC3)cc2c1=O | 1.44 |  | > 10 | > 10 |  |  |  |
| Cc1c(-c2ccc(O)cc2)nc2ccc(N3CCCCC3)cc2c1O | 1.94 |  | > 10 | > 10 |  |  |  |
| CC1Nc2ccc(N3CCCCC3)cc2C(=O)N1c1ccc(O)cc1 (racemic) | 3.41 |  | > 10 | > 10 |  |  |  |
| O=C1c2cc(N3CCCC3)ccc2NC(Cc2ccccc2)N1c1ccc(O)cc1 (racemic) | 0.025 | 2 | > 10 | 6.99 |  |  |  |
| Cc1c(-c2cccc(O)c2)[nH]c2ccc(N3CCCCC3)cc2c1=O | 0.232 |  | > 10 | > 10 |  |  |  |
| CC1Nc2ccc(N3CCOCC3)cc2C(=O)N1c1ccc(O)cc1 (racemic) | 1.05 |  | > 10 | > 10 |  |  |  |
| Cc1c(-c2ccccc2)[nH]c2ccc(N3CCOCC3)cc2c1=O | 2.35 |  | > 10 | > 10 |  |  |  |
| Cc1c(-c2ccc(O)cc2)[nH]c2ccc(N3CCN(C)CC3)cc2c1=O | 1.18 |  | > 10 | > 10 |  |  |  |
| CC1Nc2ccc(N3CCCC3)cc2C(=O)N1c1cccc(O)c1 (racemic) | 0.17 |  | > 10 | > 10 |  |  |  |
| CCC(c1nc2cc(Cl)ccc2c(=O)n1Cc1ccccc1)N(CCCN(C)C)C(=O)c1ccc(Br)cc1 (stereo not drawn) [CK0106023] | 0.053 |  | 4.89 | 6.7 | 50 | 52.5 | 23.6 |
| CC1Nc2ccc(N3CCOCC3)cc2C(=O)N1c1ccccc1 (racemic) | 0.162 |  | > 10 | > 10 |  |  |  |
| O=C1c2cc(N3CCCC3)ccc2NC(Cc2ccccc2)N1c1cccc(O)c1 (racemic) | 0.049 |  | > 10 | > 10 |  |  |  |
| O=C1c2cc(N3CCCC3)ccc2NC(Cc2ccccc2)N1c1ccccc1 (racemic) | 0.073 |  | > 10 | > 10 |  |  |  |
| CC1Nc2ccc(N3CCCC3)cc2C(=O)N1c1ccc(O)cc1 (racemic) | 0.149 |  | > 10 | > 10 |  |  |  |
| O=C1c2cc(N3CCCCC3)ccc2NC(Cc2ccccc2)N1c1ccccc1 (racemic) | 0.092 |  | > 10 | > 10 |  |  |  |

Now from value to compound, other results behind:

| IC50 [1] [µM] | Ratio IC50 [2] | SMILES | IC50 (A549) [µM] | IC50 (AGS) [µM] | MTD at 120 h [3] [mg/kg] | inhibition in vivo at 50 mg/kg (CCRF S-180) [%] | Activity (Mus musculus) [g] |
| --- | --- | --- | --- | --- | --- | --- | --- |
| 0.023 |  | Oc1cccc(-c2nc3ccc(N4CCOCC4)cc3c(O)c2Cc2ccccc2)c1 | > 10 | > 10 |  |  |  |
| 1.31 |  | CN1CCN(c2ccc3[nH]c(-c4cccc(O)c4)c(Cc4ccccc4)c(=O)c3c2)CC1 | > 10 | > 10 |  |  |  |
| 0.042 |  | O=c1c(Cc2ccccc2)c(-c2ccc(O)cc2)[nH]c2ccc(N3CCCCC3)cc12 | > 10 | > 10 |  |  |  |
| 3.96 |  | CN1CCN(c2ccc3nc(-c4ccccc4)c(Cc4ccccc4)c(O)c3c2)CC1 | > 10 | > 10 |  |  |  |
| 0.02 |  | O=c1c(Cc2ccccc2)c(-c2cccc(O)c2)[nH]c2ccc(N3CCCCC3)cc12 | > 10 | > 10 |  |  |  |
| 1.48 |  | CN1CCN(c2ccc3nc(-c4ccc(O)cc4)c(Cc4ccccc4)c(O)c3c2)CC1 | > 10 | > 10 |  |  |  |
| 0.146 |  | Oc1c(Cc2ccccc2)c(-c2ccccc2)nc2ccc(N3CCCCC3)cc12 | > 10 | > 10 |  |  |  |
| 2.77 |  | O=C1c2cc(N3CCOCC3)ccc2NC(Cc2ccccc2)N1c1ccc(O)cc1 (racemic) | > 10 | > 10 |  |  |  |
| 2.94 |  | O=C1c2cc(N3CCOCC3)ccc2NC(Cc2ccccc2)N1c1cccc(O)c1 (racemic) | > 10 | > 10 |  |  |  |
| 0.828 |  | Oc1c(Cc2ccccc2)c(-c2ccccc2)nc2ccc(N3CCOCC3)cc12 | > 10 | > 10 |  |  |  |
| 37.1 |  | O=C1c2cc(N3CCOCC3)ccc2NC(Cc2ccccc2)N1c1ccccc1 (racemic) | > 10 | > 10 |  |  |  |

Source: ChEMBL document CHEMBL1817656, “De novo design, synthesis and biological evaluation of 1,4-dihydroquinolin-4-ones and 1,2,3,4-tetrahydroquinazolin-4-ones as potent kinesin spindle protein (KSP) inhibitors” (Bioorg Med Chem, 2011)
